Patent US8741576B2, “Heteroclitic analogs and related methods” (Epimunne Inc., priority 1999, dated 2014)
Ends that are not written are not given here.

These compounds were tested against HLA-B7 (B*0702) (Homo sapiens, UniProt P01889) (assay: HLA-B7 (B*0702) peptide binding, competition with radiolabeled SS 5-13a (L7→Y) peptide). Settings: purified HLA-B7.

IC50 [µM]	Compound
0.186	VPISHLEIL [MAGE2.170E7]
0.105	VPISHLGIL [MAGE2.170G7]
0.075	VPISHLHIL [MAGE2.170H7]
0.069	VPISHLMIL [MAGE2.170M7]

What follows are compounds tested on human PBMC CTL; 624mel tumor cell line (assay: Primary in vitro CTL induction from human PBMC with MAGE3.112 or analogs). Settings: IFNγ against .221A2.1 cells with or without peptide.

Compound	peptide-specific CTL responses in human PBMC cultures stimulated with the peptide
CC[C@H](C)[C@H](NC(=O)[C@H](CCC(=O)O)NC(=O)[C@H](C)NC(=O)[C@@H](NC(=O)[C@@H](N)CCCCN)C(C)C)C(=O)N[C@H](C(=O)N[C@@H](Cc1c[nH]cn1)C(=O)N[C@@H](Cc1ccccc1)C(=O)N[C@@H](CC(C)C)C(=O)O)C(C)C [MAGE3.112 I5]	Peptide-specific CTL responses were detected
CC(C)C[C@H](NC(=O)[C@H](Cc1ccccc1)NC(=O)[C@H](Cc1c[nH]c2ccccc12)NC(=O)[C@@H](NC(=O)[C@H](CC(C)C)NC(=O)[C@H](CCC(=O)O)NC(=O)[C@H](C)NC(=O)[C@@H](NC(=O)[C@@H](N)CCCCN)C(C)C)C(C)C)C(=O)O [MAGE3.112 W7]	Peptide-specific CTL responses were detected
